Measurements reported in patent US8987273B2, “Substituted imidazo[1,2-B]pyridazines” (Bayer Intellectual Property GmbH, priority 2010, dated 2015).
Structures can show the parent of a compound that is named as a salt.

Assays:
[1] = target: His-tagged human recombinant kinase full-length Akt1 (Homo sapiens (Human), UniProt P31749); assay: Akt1 kinase assay (TR-FRET); assay type: biochemical; conditions: 10 μM ATP; median
Text: Akt1 inhibitory activity of compounds of the present invention was quantified employing the Akt1 TR-FRET assay as described in the following paragraphs. His-tagged human recombinant kinase full-length Akt1 expressed in insect cells was purchased form Invitrogen (part number PV 3599). As substrate for the kinase reaction the biotinylated peptide biotin-Ahx-[…] (C-terminus in amide form) was used which can be purchased e.g. from the company Biosynthan GmbH (Berlin-Buch, Germany).
(§1) For the assay 50 nl of a 100 fold concentrated solution of the test compound in DMSO was pipetted into a black low volume 384 well microtiter plate (Greiner Bio-One, Frickenhausen, Germany), 2 μl of a solution of Akt1 in assay buffer [50 mM TRIS/HCl pH 7.5, 5 mM MgCl2, 1 mM dithiothreitol, 0.02% (v/v) Triton X-100 (Sigma)] were added and the mixture was incubated for 15 min at 22° C. to allow pre-binding of the test compounds to the enzyme before the start of the kinase reaction. Then the kinase reaction was started by the addition of 3 μl of a solution of adenosine-tri-phosphate (ATP, 16.7 μM=>final conc. in the 5 μl assay volume is 10 μM) and substrate (1.67 μM=>final conc. in the 5 μl assay volume is 1 μM) in assay buffer and the resulting mixture was incubated for a reaction time of 60 min at 22° C. The concentration of Akt1 in the assay was adjusted depending of the activity of the enzyme lot and was chosen appropriate to have the assay in the linear range, typical enzyme concentrations were in the range of about 0.05 ng/μl (final conc. in the 5 μl assay volume).
(§2) The reaction was stopped by the addition of 5 μl of a solution of HTRF detection reagents (200 nM streptavidine-XL665 [Cisbio] and 1.5 nM anti-phosho-Serine antibody [Millipore, cat. #35-001] and 0.75 nM LANCE Eu-W 1024 labeled anti-mouse IgG antibody [Perkin Elmer]) in an aqueous EDTA-solution (100 mM EDTA, 0.1% (w/v) bovine serum albumin in 50 mM HEPES/NaOH pH 7.5).
(§3) The resulting mixture was incubated 1 h at 22° C. to allow the binding of the biotinylated phosphorylated peptide to the streptavidine-XL665 and the antibodies. Subsequently the amount of phosphorylated substrate was evaluated by measurement of the resonance energy transfer from the anti-mouse-IgG-Eu-Chelate to the streptavidine-XL665. Therefore, the fluorescence emissions at 620 nm and 665 nm after excitation at 350 nm was measured in a HTRF reader, e.g. a Rubystar (BMG Labtechnologies, Offenburg, Germany) or a Viewlux (Perkin-Elmer). The ratio of the emissions at 665 nm and at […] was taken as the measure for the amount of phosphorylated substrate. The data were normalised (enzyme reaction without inhibitor=0% inhibition, all other assay components but no enzyme=100% inhibition).

[2] = target: His-tagged human recombinant kinase full-length Akt2 (Homo sapiens (Human), UniProt P31751); assay: Akt2 kinase assay (TR-FRET); assay type: biochemical; conditions: 10 μM ATP; median
Text: Akt2 inhibitory activity of compounds of the present invention was quantified employing the Akt2 TR-FRET assay as described in the following paragraphs.
His-tagged human recombinant kinase full-length Akt2 expressed in insect cells and activated by PDK1 was purchased form Invitrogen (part number PV 3975). As substrate for the kinase reaction the biotinylated peptide biotin-Ahx-[…] (C-terminus in amide form) was used which can be purchased e.g. from the company Biosynthan GmbH (Berlin-Buch, Germany).
as §1, with “Akt2” for “Akt1”, “0.2” for “0.05”
as §2, with “0.1%/w/v\” for “0.1% (w/v)”
as §3, with “TR-FRET” for “HTRF”

[3] = system: phospho-AKT at S473 in KPL4 breast tumour cell line; assay: Cellular p-AKT1/2/3-S473 assay; assay type: cell-based; conditions: KPL4 cells, 2 hours treatment; median; read-out: pAKT-S743 median IC50
Description: The molecular mechanism of action was investigated in a set of experiments to assess the inhibition of the PI3K-AKT-mTOR pathway in responsive cell lines such as KPL4 breast tumour cell line (PIK3CAH1047R, HER2O/E and hormone independent). The phospho-substrates of PI3K-AKT-mTOR axis were used as the read-outs to reflect pathway inhibition. Cells were seeded at 60-80% confluency per well in 96-well cell culture plates. After overnight incubation at 37° C. 5% CO2, cells were treated with compounds and vehicle at 37° C. for 2 hours. […] All measurements where at least done in duplicates and confirmed by independent repetition.
Alternatively pAKT-S473 was measured using the “Akt Duplex” of the MULTI-SPOT® Assay System (Fa. Meso Scale Discovery, Cat# N41100B-1) following manufacturers instructions. Each assay used 20 μg of protein extract and measured total AKT and p-AKT content simultaneously in one well. All measurements where at least done in duplicates and confirmed by independent repetition. Values for P-AKT are expressed as percentage of P-AKT level compared to total-AKT content of the extracts.

KPL-4 cells = assay: Tumor cell proliferation assay (CellTiter-Glo); assay type: cell-based; conditions: KPL4; 72 h drug exposure
Description: Compounds were tested in a cell-based assay that measures the capacity of the compounds to inhibit tumour cell proliferation following a 72 h drug exposure. Cell viability is determined using CellTiter-Glow® (CTG, Promega, cat# G757112/3). The CellTiter-Glo® Luminescent Cell Viability Assay is a homogeneous method to determine the number of viable cells in culture. Detection is based on using the luciferase reaction to measure the amount of ATP from viable cells. The amount of ATP in cells correlates with cell viability. Within minutes after a loss of membrane integrity, cells lose the ability to synthesize ATP, and endogenous ATPases destroy any remaining ATP; thus the levels of ATP fall precipitously.
Cells were plated at 3000-5000 cells/well (depending on the cell lines) in 90 μL growth medium on MTPs (Corning; #3603, black plate, clear flat bottom). For each cell line assayed, cells were plated onto a separate plate for determination of […] at t=0 hour and t=72 hour time points. Following overnight incubation at 37° C., chemiluminescence values for the t=0 samples were determined after adding 10 μl medium and 100 μl CTG solution according to manufacture protocol. Plates for the t=72 hour time points were treated with compounds diluted into growth medium at ten times final concentration added in 10 μL to the cell culture plate. Cells were then incubated for 72 hours at 37° C. Chemiluminescence values for the t=72 hour samples were determined. For data analysis, briefly, data from 24 h plate where used to reflect 100% inhibition of growth (“Ci”) and DMSO control for uninhibited growth (“C0”) and analyzed using MTS software package for IC50 and Hill coefficient. Experiments were controlled using a reference compound as standard.

Sequence of His-tagged human recombinant kinase full-length Akt1 (P31749 whole entry): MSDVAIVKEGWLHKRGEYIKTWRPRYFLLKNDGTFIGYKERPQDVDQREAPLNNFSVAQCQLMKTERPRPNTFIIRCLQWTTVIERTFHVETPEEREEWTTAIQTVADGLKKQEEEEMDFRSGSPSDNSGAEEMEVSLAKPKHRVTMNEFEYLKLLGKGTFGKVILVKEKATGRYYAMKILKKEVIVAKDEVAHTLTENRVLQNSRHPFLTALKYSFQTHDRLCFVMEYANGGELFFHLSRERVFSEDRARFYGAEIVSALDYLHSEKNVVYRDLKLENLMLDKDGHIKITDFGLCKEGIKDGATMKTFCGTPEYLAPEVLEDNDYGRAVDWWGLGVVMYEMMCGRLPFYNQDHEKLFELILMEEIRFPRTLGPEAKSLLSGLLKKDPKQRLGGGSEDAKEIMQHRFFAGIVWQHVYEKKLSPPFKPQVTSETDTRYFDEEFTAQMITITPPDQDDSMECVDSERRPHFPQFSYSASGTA
Sequence of His-tagged human recombinant kinase full-length Akt2 (P31751 whole entry): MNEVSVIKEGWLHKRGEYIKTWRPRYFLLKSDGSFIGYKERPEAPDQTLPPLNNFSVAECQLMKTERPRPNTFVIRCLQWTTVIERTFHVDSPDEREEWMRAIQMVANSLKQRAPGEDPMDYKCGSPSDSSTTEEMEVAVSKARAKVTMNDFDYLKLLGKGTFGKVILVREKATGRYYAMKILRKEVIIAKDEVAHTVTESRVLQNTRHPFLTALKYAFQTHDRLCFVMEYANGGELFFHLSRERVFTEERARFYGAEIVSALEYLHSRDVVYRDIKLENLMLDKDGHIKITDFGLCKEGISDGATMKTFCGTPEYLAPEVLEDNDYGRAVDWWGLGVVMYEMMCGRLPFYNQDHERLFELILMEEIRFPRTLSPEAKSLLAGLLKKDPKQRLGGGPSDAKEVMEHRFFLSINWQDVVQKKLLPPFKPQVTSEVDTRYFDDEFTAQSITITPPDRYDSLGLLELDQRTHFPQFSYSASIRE

Structure (SMILES) | IC50 [1] [nM] | IC50 [2] [nM] | IC50 [3] [nM] | IC50 (KPL-4 cells) [nM]
Cc1cn2nc(-c3ccc(C4(N)CCC4)cc3)c(-c3ccccc3)cc2n1 [Example 1-1, 1-[4-(2-Methyl-7-phenyl-imidazo[1,2-b]pyridazin-6-yl)-phenyl]-cyclobutylamine hydrochloride] | 17300 | 20000 | 10000 | 10000
NC1(c2ccc(-c3nn4c(Br)cnc4cc3-c3ccccc3)cc2)CCC1 [Example 4-8, 1-[4-(3-Bromo-7-phenyl-imidazo[1,2-b]pyridazin-6-yl)-phenyl]-cyclobutylamine hydrochloride] | 74 | 264 | 110 | 2380
CCOC(=O)c1cncc(-c2cnc3cc(-c4ccccc4)c(-c4ccc(C5(N)CCC5)cc4)nn23)c1 [Example 4-17, 5-{6-[4-(1-Amino-cyclobutyl)-phenyl]-7-phenyl-imidazo[1,2-b]pyridazin-3-yl}-nicotinic acid ethyl ester] | 7 | 110 | 60 | 6200
NC(=O)c1ccc(-c2cnc3cc(-c4ccccc4)c(-c4ccc(C5(N)CCC5)cc4)nn23)cc1 [Example 4-10, 4-{6-[4-(1-Amino-cyclobutyl)-phenyl]-7-phenyl-imidazo[1,2-b]pyridazin-3-yl}-benzamide hydrochloride] | 27 | 118 | 70 | 1260
NC1(c2ccc(-c3nn4c(-c5cn[nH]c5)cnc4cc3-c3ccccc3)cc2)CCC1 [Example 4-12, 1-{4-[7-Phenyl-3-(1H-pyrazol-4-yl)-imidazo[1,2-b]pyridazin-6-yl]-phenyl}-cyclobutylamine] | 9 | 67 | 10 | 550
N#Cc1cccc(-c2cnc3cc(-c4ccccc4)c(-c4ccc(C5(N)CCC5)cc4)nn23)c1 [Example 3-0, 3-{6-[4-(1-Amino-cyclobutyl)-phenyl]-7-phenyl-imidazo[1,2-b]pyridazin-3-yl}-benzonitrile] | 5 | 82 | 1550 | 1710
NC1(c2ccc(-c3nn4c(-c5cccc(CO)c5)cnc4cc3-c3ccccc3)cc2)CCC1 [Example 4-5, (3-{6-[4-(1-Amino-cyclobutyl)-phenyl]-7-phenyl-imidazo[1,2-b]pyridazin-3-yl}-phenyl)-methanol] | 6 | 37 | 30 | 1310

Second part, the compound after the results:

IC50 [1] [nM] | IC50 [2] [nM] | IC50 [3] [nM] | IC50 (KPL-4 cells) [nM] | Structure (SMILES)
15000 | 16800 | 10000 | 3850 | Cc1nc2cc(-c3ccccc3)c(-c3ccc(C4(N)CCC4)cc3)nn2c1-c1cccc(C(N)=O)c1 [Example 5-0, 3-{6-[4-(1-Amino-cyclobutyl)-phenyl]-2-methyl-7-phenyl-imidazo[1,2-b]pyridazin-3-yl}-benzamide]
99 | 106 | 610 | 3030 | NC1(c2ccc(-c3nn4c(-c5ccc(F)cc5)c(Cl)nc4cc3-c3ccccc3)cc2)CCC1 [Example 7-0, 1-{4-[2-Chloro-3-(4-fluorophenyl)-7-phenyl-imidazo[1,2-b]pyridazin-6-yl]-phenyl}-cyclobutylamine]
10100 | 16700 | 10000 | 2110 | Cc1nc2cc(-c3ccccc3)c(-c3ccc(C4(N)CCC4)cc3)nn2c1-c1ccc(F)c(CO)c1 [Example 5-1, (5-{6-[4-(1-Amino-cyclobutyl)-phenyl]-2-methyl-7-phenyl-imidazo[1,2-b]pyridazin-3-yl}-2-fluorophenyl)-methanol]
14900 | 17200 | 10000 | 9220 | Cc1cc(-c2c(C)nc3cc(-c4ccccc4)c(-c4ccc(C5(N)CCC5)cc4)nn23)[nH]n1 [Example 5-6, 1-{4-[2-Methyl-7-phenyl-3-(5-methyl-2H-pyrazol-3-yl)-imidazo[1,2-b]pyridazin-6-yl]-phenyl}-cyclobutylamine]
18000 | 20000 | 10000 | 2490 | Cc1nc2cc(-c3ccccc3)c(-c3ccc(C4(N)CCC4)cc3)nn2c1/C=C/C(N)=O [Example 10-0, (E)-3-{6-[4-(1-Amino-cyclobutyl)-phenyl]-2-methyl-7-phenyl-imidazo[1,2-b]pyridazin-3-yl}-acrylamide]
